Measurements reported in ChEMBL document CHEMBL1136039, “Synthesis and SAR of novel imidazoquinoxaline-based Lck inhibitors: improvement of cell potency” (Bioorg Med Chem Lett, 2002).

Test system: PBL
Test: cells
Settings: Homo sapiens, Blood
Description: 50% inhibition of T-cell proliferation induced by anti-CD3/anti-CD28 co-stimulation in human peripheral blood leukocytes (PBLs).

Compound | IC50
COc1cc2c(cc1NCCN(C)C)nc(Nc1c(C)cccc1Cl)c1cnc(C)n12 | 130 nM
COc1cccc2nc(Nc3c(C)cccc3Cl)c3cncn3c12 | 2300 nM
COc1cc2c(cc1OCCN1CCOCC1)nc(Nc1c(C)cccc1Cl)c1cncn12 | 470 nM
CCNc1ccc2nc(Nc3c(C)cccc3Cl)c3cncn3c2c1 | 2200 nM
Cc1cccc(Cl)c1Nc1nc2ccc(NCCN3CCOCC3)cc2n2cncc12 | 1300 nM
Cc1cccc(Cl)c1Nc1nc2cc(N3CCNCC3)ccc2n2cncc12 | 1000 nM
CCN1CCN(c2ccc3nc(Nc4c(C)cccc4Cl)c4cncn4c3c2)CC1 | 270 nM
Cc1cccc(Cl)c1Nc1nc2cc(N3CCN(C)CC3)ccc2n2cncc12 | 720 nM
COc1cc2c(cc1NCCN(C)C)nc(Nc1c(C)cccc1Cl)c1cncn12 | 190 nM
CCN(CC)c1ccc2nc(Nc3c(C)cccc3Cl)c3cncn3c2c1 | 2600 nM
Cc1cccc(Cl)c1Nc1nc2ccc(N3CCN(C)CC3)cc2n2cncc12 | 240 nM
Cc1cccc(Cl)c1Nc1nc2ccc(N3CC(C)NC(C)C3)cc2n2cncc12 (configuration not stated) | 340 nM
Cc1cccc(Cl)c1Nc1nc2cc(O)c(O)cc2n2cncc12 | > 9000 nM
Cc1cccc(Cl)c1Nc1nc2cc(NCCCN(C)C)ccc2n2cncc12 | 480 nM
Cc1cccc(Cl)c1Nc1nc2ccc(N3CCN(C=O)CC3)cc2n2cncc12 | 530 nM
Cc1cccc(Cl)c1Nc1nc2ccc(N3CCNCC3)cc2n2cncc12 | 380 nM
Cc1cccc(Cl)c1Nc1nc2ccc(NCCN(C)C)cc2n2cncc12 | 880 nM
CC(=O)Nc1ccc2nc(Nc3c(C)cccc3Cl)c3cncn3c2c1 | 1400 nM
Cc1cccc(Cl)c1Nc1nc2ccc(N3CCCN(C)CC3)cc2n2cncc12 | 540 nM

Compound | IC50
Cc1cccc(Cl)c1Nc1nc2cc(NCCN(C)C)ccc2n2cncc12 | 520 nM
Brc1ccccc1Nc1nc2ccccc2n2cncc12 | 17000 nM
COc1ccc2c(c1)nc(Nc1c(C)cccc1Cl)c1cncn12 | 2600 nM
Cc1cccc(Cl)c1Nc1nc2ccc(N)cc2n2cncc12 | 1600 nM
Cc1cccc(Cl)c1Nc1nc2cc3c(cc2n2cncc12)OCO3 | 2000 nM
Cc1cccc(Cl)c1Nc1nc2ccc(N3CCOCC3)cc2n2cncc12 | 780 nM
COc1cc2c(cc1NCCN(C)C)nc(Nc1c(F)cccc1Cl)c1cncn12 | 240 nM
COc1cc2c(cc1NCCN1CCOCC1)nc(Nc1c(C)cccc1Cl)c1cncn12 | 280 nM
Cc1cccc(Cl)c1Nc1nc2cc(N3CC(C)NC(C)C3)ccc2n2cncc12 (configuration not stated) | 570 nM
COc1cc2nc(Nc3c(C)cccc3Cl)c3cncn3c2cc1N1CC(C)NC(C)C1 (configuration not stated) | 760 nM
Cc1cccc(Cl)c1Nc1nc2ccc(NCCCN3CCOCC3)cc2n2cncc12 | 760 nM
Cc1cccc(Cl)c1Nc1nc2ccc(N(C)C)cc2n2cncc12 | 2000 nM
Cc1cccc(Cl)c1Nc1nc2cc3c(cc2n2cncc12)OCCO3 | 2200 nM
Cc1cccc(Cl)c1Nc1nc2cc(N3CCOCC3)ccc2n2cncc12 | 1000 nM
CCN(CC)c1ccc2c(c1)nc(Nc1c(C)cccc1Cl)c1cncn12 | 1700 nM
COc1cc2nc(Nc3c(C)cccc3Cl)c3cncn3c2cc1OC | 670 nM
COc1cc2nc(Nc3c(C)cccc3C)c3cncn3c2cc1OC | 1100 nM
COc1ccc2nc(Nc3c(C)cccc3Cl)c3cncn3c2c1 | 1400 nM
